Assay results from patent US8901118B2, “Compounds and methods for kinase modulation, and indications therefor” (Plexxikon Inc., priority 2010, dated 2014).

Target: T1, BCR-NTRK2 BaF3 cells (Homo sapiens, UniProt Q16620)
T1 construct: fused on or other part: P11274 (Breakpoint cluster region protein)
Test: BaF3 BCR-NTRK2 cell proliferation assay (ATPlite)
Assay type: cell-based
Conditions: read-out: Inhibition of Cell Proliferation IC50, BCR/BaF3 TrkB
Outline: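 Growth inhibition over 3 days at 37 °C; IC50 from ATPlite luminescence, 8 concentrations (1:3 steps, max 10 μM). BaF3 fusion lines were tested without IL-3.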

T1 sequence (Q16620 538-807): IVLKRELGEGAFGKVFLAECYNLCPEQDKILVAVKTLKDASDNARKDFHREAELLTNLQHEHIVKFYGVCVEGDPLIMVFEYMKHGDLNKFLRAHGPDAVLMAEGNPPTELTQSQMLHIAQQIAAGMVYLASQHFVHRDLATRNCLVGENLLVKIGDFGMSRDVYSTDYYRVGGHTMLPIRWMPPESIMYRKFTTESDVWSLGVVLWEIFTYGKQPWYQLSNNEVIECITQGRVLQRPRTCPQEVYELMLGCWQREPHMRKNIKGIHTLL

IC50 [nM]	SMILES
> 10000	Clc1cnc2[nH]cc(Cc3cnc(NC4CC4)nc3)c2c1 [Compound P-3005, [5-(5-Chloro-1H-pyrrolo[2,3-b]pyridin-3-ylmethyl)-pyrimidin-2-yl]-cyclopropyl-amine]
> 10000	COc1ccccc1Nc1ncc(Cc2c[nH]c3ncc(Cl)cc23)cn1 [Compound P-3016, [5-(5-Chloro-1H-pyrrolo[2,3-b]pyridin-3-ylmethyl)-pyrimidin-2-yl]-(2-methoxy-phenyl)-amine]
> 10000	Fc1cccc(Nc2ncc(Cc3c[nH]c4ncc(Cl)cc34)cn2)c1 [Compound P-3017, [5-(5-Chloro-1H-pyrrolo[2,3-b]pyridin-3-ylmethyl)-pyrimidin-2-yl]-(3-fluoro-phenyl)-amine]
< 100	COc1ccc(Nc2ncc(Cc3c[nH]c4ncc(C)cc34)cn2)cn1 [Compound P-3020, (6-Methoxy-pyridin-3-yl)-[5-(5-methyl-1H-pyrrolo[2,3-b]pyridin-3-ylmethyl)-pyrimidin-2-yl]-amine]
< 100	COc1ccc(Nc2ncc(Cc3c[nH]c4ncc(C)cc34)cn2)cc1 [Compound P-3021, (4-Methoxy-phenyl)-[5-(5-methyl-1H-pyrrolo[2,3-b]pyridin-3-ylmethyl)-pyrimidin-2-yl]-amine]
< 1000	COc1cc(Nc2ncc(Cc3c[nH]c4ncc(C)cc34)cn2)ccc1F [Compound P-3022, (4-Fluoro-3-methoxy-phenyl)-[5-(5-methyl-1H-pyrrolo[2,3-b]pyridin-3-ylmethyl)-pyrimidin-2-yl]-amine]
< 1000	COc1ccc(Nc2ncc(Cc3c[nH]c4ncc(C)cc34)cn2)cc1F [Compound P-3023, (3-Fluoro-4-methoxy-phenyl)-[5-(5-methyl-1H-pyrrolo[2,3-b]pyridin-3-ylmethyl)-pyrimidin-2-yl]-amine]
< 1000	CCCOc1ccc(Nc2ncc(Cc3c[nH]c4ncc(C)cc34)cn2)cc1 [Compound P-3024, [5-(5-Methyl-1H-pyrrolo[2,3-b]pyridin-3-ylmethyl)-pyrimidin-2-yl]-(4-propoxy-phenyl)-amine]
< 10	CCc1ccc(Nc2ncc(Cc3c[nH]c4ncc(C)cc34)cn2)cc1 [Compound P-3025, (4-Ethyl-phenyl)-[5-(5-methyl-1H-pyrrolo[2,3-b]pyridin-3-ylmethyl)-pyrimidin-2-yl]-amine]
< 100	CCOc1ccc(Nc2ncc(Cc3c[nH]c4ncc(C)cc34)cn2)cc1 [Compound P-3026, (4-Ethoxy-phenyl)-[5-(5-methyl-1H-pyrrolo[2,3-b]pyridin-3-ylmethyl)-pyrimidin-2-yl]-amine]
< 1000	CCOc1ccc(Nc2ncc(Cc3c[nH]c4ncc(C)cc34)cn2)cn1 [Compound P-3027, (6-Ethoxy-pyridin-3-yl)-[5-(5-methyl-1H-pyrrolo[2,3-b]pyridin-3-ylmethyl)-pyrimidin-2-yl]-amine]
< 1000	Cc1cnc2[nH]cc(Cc3cnc(Nc4cc(-c5ccc(F)cc5)n[nH]4)nc3)c2c1 [Compound P-3028, [5-(4-Fluoro-phenyl)-2H-pyrazol-3-yl]-[5-(5-methyl-1H-pyrrolo[2,3-b]pyridin-3-ylmethyl)-pyrimidin-2-yl]-amine]
> 1000	Cc1cnc2[nH]cc(Cc3cnc(Nc4cc(C(C)(C)C)n[nH]4)nc3)c2c1 [Compound P-3029, (5-tert-Butyl-2H-pyrazol-3-yl)-[5-(5-methyl-1H-pyrrolo[2,3-b]pyridin-3-ylmethyl)-pyrimidin-2-yl]-amine]
< 10	Cc1cnc2[nH]cc(Cc3cnc(Nc4ccc(C(C)(C)C)cc4)nc3)c2c1 [Compound P-3030, (4-tert-Butyl-phenyl)-[5-(5-methyl-1H-pyrrolo[2,3-b]pyridin-3-ylmethyl)-pyrimidin-2-yl]-amine amine]
< 10	Cc1cnc2[nH]cc(Cc3cnc(Nc4ccc(C(O)(C(F)(F)F)C(F)(F)F)cc4)nc3)c2c1 [Compound P-3031, 1,1,1,3,3,3-Hexafluoro-2-{4-[5-(5-methyl-1H-pyrrolo[2,3-b]pyridin-3-ylmethyl)-pyrimidin-2-ylamino]-phenyl}-propan-2-ol]
> 1000	Cc1cnc2[nH]cc(Cc3cnc(Nc4cc(C5CC5)n[nH]4)nc3)c2c1 [Compound P-3032, (5-Cyclopropyl-2H-pyrazol-3-yl)-[5-(5-methyl-1H-pyrrolo[2,3-b]pyridin-3-ylmethyl)-pyrimidin-2-yl]-amine]
< 100	CSc1ccc(Nc2ncc(Cc3c[nH]c4ncc(C)cc34)cn2)cc1 [Compound P-3033, [5-(5-Methyl-1H-pyrrolo[2,3-b]pyridin-3-ylmethyl)-pyrimidin-2-yl]-(4-methylsulfanyl-phenyl)-amine]
< 1000	Cc1cnc2[nH]cc(Cc3cnc(Nc4ccc(S(C)(=O)=O)cc4)nc3)c2c1 [Compound P-3034, (4-Methanesulfonyl-phenyl)-[5-(5-methyl-1H-pyrrolo[2,3-b]pyridin-3-ylmethyl)-pyrimidin-2-yl]-amine]
< 1000	CCn1ccc(Nc2ncc(Cc3c[nH]c4ncc(C)cc34)cn2)n1 [Compound P-3035, (1-Ethyl-1H-pyrazol-3-yl)-[5-(5-methyl-1H-pyrrolo[2,3-b]pyridin-3-ylmethyl)-pyrimidin-2-yl]-amine]
< 1000	CCn1cc(Nc2ncc(Cc3c[nH]c4ncc(C)cc34)cn2)cn1 [Compound P-3036, (1-Ethyl-1H-pyrazol-4-yl)-[5-(5-methyl-1H-pyrrolo[2,3-b]pyridin-3-ylmethyl)-pyrimidin-2-yl]-amine]
> 10000	Cc1cnc2[nH]cc(Cc3cnc(Nc4cc(C(F)(F)F)n[nH]4)nc3)c2c1 [Compound P-3037, [5-(5-Methyl-1H-pyrrolo[2,3-b]pyridin-3-ylmethyl)-pyrimidin-2-yl]-(5-trifluoromethyl-2H-pyrazol-3-yl)-amine]
> 1000	Cc1cnc2[nH]cc(Cc3cnc(Nc4cc(OC(C)C)n[nH]4)nc3)c2c1 [Compound P-3038, (5-Isopropoxy-2H-pyrazol-3-yl)-[5-(5-methyl-1H-pyrrolo[2,3-b]pyridin-3-ylmethyl)-pyrimidin-2-yl]-amine]
< 100	Cc1ccc(Nc2ccc(Cc3c[nH]c4ncc(Cl)cc34)c(F)n2)cn1 [Compound P-3042, [5-(5-Chloro-1H-pyrrolo[2,3-b]pyridin-3-ylmethyl)-6-fluoro-pyridin-2-yl]-(6-methyl-pyridin-3-yl)-amine]
< 10	CCOc1ccc(Nc2ccc(C(=O)c3c[nH]c4ncc(C)cc34)c(F)n2)cn1 [Compound P-3045, [6-(6-ethoxy-pyridin-3-ylamino)-2-fluoro-pyridin-3-yl]-(5-methyl-1H-pyrrolo[2,3-b]pyridin-3-yl)-methanone]
< 100	CCOc1ncnc2[nH]cc(Cc3ccc(Nc4ccc(Br)nc4)nc3F)c12 [Compound P-4020, (6-Bromo-pyridin-3-yl)-[5-(4-ethoxy-7H-pyrrolo[2,3-d]pyrimidin-5-ylmethyl)-6-fluoro-pyridin-2-yl]-amine]
< 1000	CCOc1ncnc2[nH]cc(Cc3ccc(Nc4cccnc4)nc3F)c12 [Compound P-4021, [5-(4-Ethoxy-7H-pyrrolo[2,3-d]pyrimidin-5-ylmethyl)-6-fluoro-pyridin-2-yl]-pyridin-3-yl-amine]
< 10	CCOc1ccc(Nc2ccc(Cc3c[nH]c4ncnc(C5CC5)c34)c(F)n2)cn1 [Compound P-4026, [5-(4-Cyclopropyl-7H-pyrrolo[2,3-d]pyrimidin-5-ylmethyl)-6-fluoro-pyridin-2-yl]-(6-ethoxy-pyridin-3-yl)-amine]
